Reference: patent US8992783B2, “Process for enantioseparation of chiral systems with compound formation using two subsequent crystallization steps” (Max-Planck-Gessellschaft zur Förderung der Wissenschaften …, priority 2008, dated 2015)
Where two headings read alike, the source gives them in different places.

Details: methionine enantiomers in water

Solubility at eutectic composition (274.15 K): ′ 3.83 wt %
Solubility at eutectic composition (333.15 K): ′ 9.38 wt %
Compound: CSCC[C@H](N)C(=O)O (racemic) [methionine]
